Results taken from patent publication US20180319810A1, “SUBSTITUTED BRIDGED UREA ANALOGS AS SIRTUIN MODULATORS” (GlaxoSmithKline Intellectual Property (No.2) Limited, priority 2014, published 2018).

Target: T1, SIRT1 (Homo sapiens, UniProt Q96EB6)
T1 sequence (Q96EB6 1-747): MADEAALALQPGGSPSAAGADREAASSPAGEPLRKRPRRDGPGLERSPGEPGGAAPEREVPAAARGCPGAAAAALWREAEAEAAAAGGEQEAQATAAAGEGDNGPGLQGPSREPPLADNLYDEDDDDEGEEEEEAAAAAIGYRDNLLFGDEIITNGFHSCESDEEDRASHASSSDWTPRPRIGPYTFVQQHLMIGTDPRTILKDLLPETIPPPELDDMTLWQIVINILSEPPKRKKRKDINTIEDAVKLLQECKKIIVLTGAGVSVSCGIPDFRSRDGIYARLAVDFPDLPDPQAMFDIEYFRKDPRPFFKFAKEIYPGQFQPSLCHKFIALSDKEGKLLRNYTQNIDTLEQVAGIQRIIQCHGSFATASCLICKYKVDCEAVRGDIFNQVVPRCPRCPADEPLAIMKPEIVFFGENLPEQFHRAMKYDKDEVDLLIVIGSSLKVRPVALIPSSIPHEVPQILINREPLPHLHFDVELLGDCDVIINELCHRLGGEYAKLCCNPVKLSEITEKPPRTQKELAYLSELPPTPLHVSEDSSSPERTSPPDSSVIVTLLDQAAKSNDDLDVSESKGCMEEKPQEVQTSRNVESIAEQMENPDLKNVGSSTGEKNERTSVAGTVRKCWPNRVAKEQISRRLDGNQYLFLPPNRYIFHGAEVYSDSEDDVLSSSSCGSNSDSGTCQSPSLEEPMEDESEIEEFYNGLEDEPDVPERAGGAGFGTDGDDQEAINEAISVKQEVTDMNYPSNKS
Assay: Trp mass spectrometry assay of SIRT1 activation
Type: biochemical
Conditions: Trp peptide Ac-R-H-K-K(Ac)-W-NH2 0.5 μM, 120 μM βNAD+, 10 nM SIRT1, 25 min, 25° C.

| SMILES | TRP Activity (EC1.5, concentration of compound required to increase SIRT1 activity by 50% over control) | TRP MAX RESP (percent maximum fold activation relative to control) |
| --- | --- | --- |
| O=C(Nc1ncc(OC[C@H](O)CO)cn1)N1c2nc(-c3cccc(C(F)(F)F)c3)ncc2N2CC[C@H]1C2 [Example 41, (8S)—N-(5-((R)-2,3-dihydroxypropoxy)pyrimidin-2-yl)-2-(3-(trifluoromethyl)phenyl)-7,8-dihydro-5,8-methanopyrimido[4,5-b][1,4]diazepine-9(6H)-carboxamide] | B (EC1.5 1-25 μM) | A (Fold activation ≥150%) |
| O=C(Nc1ncc(OC[C@@H](O)CO)cn1)N1c2nc(-c3cccc(C(F)(F)F)c3)ncc2N2CC[C@H]1C2 [Example 43, (8S)—N-(5-((S)-2,3-dihydroxypropoxy)pyrimidin-2-yl)-2-(3-(trifluoromethyl)phenyl)-7,8-dihydro-5,8-methanopyrimido[4,5-b][1,4]diazepine-9(6H)-carboxamide] | B (EC1.5 1-25 μM) | A (Fold activation ≥150%) |
| O=C(NC1CCCC1)N1c2nc(-c3cccc(C(F)(F)F)c3)ncc2N2CC[C@H]1C2 [Example 52, (8S)—N-cyclopentyl-2-(3-(trifluoromethyl)phenyl)-7,8-dihydro-5,8-methanopyrimido[4,5-b][1,4]diazepine-9(6H)-carboxamide] | B (EC1.5 1-25 μM) | A (Fold activation ≥150%) |
| Cc1nc(C(=O)N[C@H](C)C(F)(F)F)nc2c1N1CCC[C@@H](C1)N2C(=O)Nc1ccc(OC[C@@H](O)CO)cn1 [Example 118, (9S)—N10-(5-((S)-2,3-dihydroxypropoxy)pyridin-2-yl)-4-methyl-N2-((R)-1,1,1-trifluoropropan-2-yl)-8,9-dihydro-6H-5,9-methanopyrimido[4,5-b][1,4]diazocine-2,10(7H)-dicarboxamide] | A (EC1.5<1 μM) | A (Fold activation ≥150%) |
| O=C(Nc1cc(OC[C@H](O)CO)ncn1)N1c2nc(-c3cccc(C(F)(F)F)c3)ncc2N2CCC[C@H]1C2 [Example 92, (9S)—N-(6-((R)-2,3-dihydroxypropoxy)pyrimidin-4-yl)-2-(3-(trifluoromethyl)phenyl)-8,9-dihydro-6H-5,9-methanopyrimido[4,5-b][1,4]diazocine-10(7H)-carboxamide] | A (EC1.5<1 μM) | A (Fold activation ≥150%) |
| Cc1cc(-c2ncc3c(n2)N(C(=O)Nc2ccccn2)[C@H]2CCN3C2)ccn1 [Example 8, (8S)-2-(2-methylpyridin-4-yl)-N-(pyridin-2-yl)-7,8-dihydro-5,8-methanopyrimido[4,5-b][1,4]diazepine-9(6H)-carboxamide] | B (EC1.5 1-25 μM) |  |
| O=C(Nc1cnc(OC[C@H](O)CO)cn1)N1c2nc(-c3cccc(C(F)(F)F)c3)ncc2N2CC[C@H]1C2 [Example 18, (8S)—N-(5-((R)-2,3-dihydroxypropoxy)pyrazin-2-yl)-2-(3-(trifluoromethyl)phenyl)-7,8-dihydro-5,8-methanopyrimido[4,5-b][1,4]diazepine-9(6H)-carboxamide] | B (EC1.5 1-25 μM) | A (Fold activation ≥150%) |
| C[C@@H](NC(=O)c1ncc2c(n1)N(C(=O)Nc1nccc(OC[C@@H](O)CO)n1)[C@H]1CCCN2C1)C(F)(F)F [Example 76, (9S)—N10-(4-((S)-2,3-dihydroxypropoxy)pyrimidin-2-yl)-N2-((R)-1,1,1-trifluoropropan-2-yl)-8,9-dihydro-6H-5,9-methanopyrimido[4,5-b][1,4]diazocine-2,10(7H)-dicarboxamide] | B (EC1.5 1-25 μM) | A (Fold activation ≥150%) |
| O=C(Nc1cnc(OC[C@H](O)CO)nc1)N1c2nc(-c3cccc(C(F)(F)F)c3)ncc2N2CCC[C@H]1C2 [Example 104, (9S)—N-(2-((R)-2,3-dihydroxypropoxy)pyrimidin-5-yl)-2-(3-(trifluoromethyl)phenyl)-8,9-dihydro-6H-5,9-methanopyrimido[4,5-b][1,4]diazocine-10(7H)-carboxamide] | A (EC1.5<1 μM) | A (Fold activation ≥150%) |
| Cc1nc(-c2cccc(C(F)(F)F)c2)nc2c1N1CC[C@@H](C1)N2C(=O)Nc1ccnc(OC[C@@H](O)CO)c1 [Example 57, (8S)—N-(2-((S)-2,3-dihydroxypropoxy)pyridin-4-yl)-4-methyl-2-(3-(trifluoromethyl)phenyl)-7,8-dihydro-5,8-methanopyrimido[4,5-b][1,4]diazepine-9(6H)-carboxamide] | B (EC1.5 1-25 μM) | A (Fold activation ≥150%) |
| O=C(Nc1cnc(OC[C@@H](O)CO)nc1)N1c2nc(-c3cccc(C(F)(F)F)c3)ncc2N2CC[C@H]1C2 [Example 53, (8S)—N-(2-((S)-2,3-dihydroxypropoxy)pyrimidin-5-yl)-2-(3-(trifluoromethyl)phenyl)-7,8-dihydro-5,8-methanopyrimido[4,5-b][1,4]diazepine-9(6H)-carboxamide] | B (EC1.5 1-25 μM) | A (Fold activation ≥150%) |
| Cn1cccc(NC(=O)N2c3nc(C(=O)NCC(F)(F)F)ncc3N3CC[C@H]2C3)c1=O [Example 2, (8S)—N9-(1-methyl-2-oxo-1,2-dihydropyridin-3-yl)-N2-(2,2,2-trifluoroethyl)-7,8-dihydro-5,8-methanopyrimido[4,5-b][1,4]diazepine-2,9(6H)-dicarboxamide] | B (EC1.5 1-25 μM) | A (Fold activation ≥150%) |
| C[C@@H](NC(=O)c1ncc2c(n1)N(C(=O)Nc1cc(OC[C@H](O)CO)ncn1)[C@H]1CCCN2C1)C(F)(F)F [Example 77, (9S)—N10-(6-((R)-2,3-dihydroxypropoxy)pyrimidin-4-yl)-N2-((R)-1,1,1-trifluoropropan-2-yl)-8,9-dihydro-6H-5,9-methanopyrimido[4,5-b][1,4]diazocine-2,10(7H)-dicarboxamide] | B (EC1.5 1-25 μM) | A (Fold activation ≥150%) |
| Cc1nc(-c2cccc(C(F)(F)F)c2)nc2c1N1CC[C@@H](C1)N2C(=O)Nc1nccc(OC[C@H](O)CO)n1 [Example 56, (8S)—N-(4-((R)-2,3-dihydroxypropoxy)pyrimidin-2-yl)-4-methyl-2-(3-(trifluoromethyl)phenyl)-7,8-dihydro-5,8-methanopyrimido[4,5-b][1,4]diazepine-9(6H)-carboxamide] | B (EC1.5 1-25 μM) | A (Fold activation ≥150%) |
| O=C(Nc1ncc(OC[C@H](O)CO)cn1)N1c2nc(-c3cccc(C(F)(F)F)c3)ncc2N2CCC[C@H]1C2 [Example 105, (9S)—N-(5-((R)-2,3-dihydroxypropoxy)pyrimidin-2-yl)-2-(3-(trifluoromethyl)phenyl)-8,9-dihydro-6H-5,9-methanopyrimido[4,5-b][1,4]diazocine-10(7H)-carboxamide] | A (EC1.5<1 μM) | A (Fold activation ≥150%) |
| Cc1ccc2c(NC(=O)N3c4nc(C(=O)N[C@H](C)C(F)(F)F)ncc4N4CCC[C@H]3C4)n[nH]c2n1 [Example 72, (9S)—N10-(6-methyl-1H-pyrazolo[3,4-b]pyridin-3-yl)-N2-((R)-1,1,1-trifluoropropan-2-yl)-8,9-dihydro-6H-5,9-methanopyrimido[4,5-b][1,4]diazocine-2,10(7H)-dicarboxamide] | A (EC1.5<1 μM) | A (Fold activation ≥150%) |
| O=C(Nc1cc(F)cc(-c2cccnc2)c1)N1c2nc(-c3cccc(C(F)(F)F)c3)ncc2N2CC[C@H]1C2 [Example 27, (8S)—N-(3-fluoro-5-(pyridin-3-yl)phenyl)-2-(3-(trifluoromethyl)phenyl)-7,8-dihydro-5,8-methanopyrimido[4,5-b][1,4]diazepine-9(6H)-carboxamide] | A (EC1.5<1 μM) | A (Fold activation ≥150%) |
